In patent publication US4656036A, “Antibiotics Tejeramycin and production thereof” (Merck & Co., Inc., priority 1985, dated 1987):

System: Pseudomonas aeruginosa MB 2835
Assay: In vivo activity against Pseudomonas aeruginosa MB 2835 systemic infections in mice (Table X)
Design: species or system Pseudomonas aeruginosa; CD 1 female mice
Conditions: for s.c./i.p. ED50 administration ratio: 10080 min; for ED50 i.p.: i.p. at 0 and 6 hours after infection; for ED50 i.p. / ED50 s.c.: multiplied by two doses, 7 days observation; for ED50 s.c.: s.c. at 0 and 6 hours after infection
Protocol: The in vivo activities of Tejeramycin, components A through G were determined against Pseudomonas aeruginosa MB 2835 infections in mice. Experimental systemic infections were produced in CD 1 female mice (Charles River Breeding Labs., Wilmington, Ma.), average body weight 19-22 grams, by the intraperitoneal (i.p.) injection of a suitably diluted overnight culture of Pseudomonas aeruginosa MB-2835 in brain heart infusion broth (Difco). The challenge dose varied from about 11-50 LD50 's LD50 =median lethal dose, the dose that should kill 50% of the infected, untreated mice). Under these conditions, the infected, untreated mice died within 48 hours.
The antibiotics were administered as aqueous solutions by intraperitoneal or subcutaneous (s.c.) injection at 0 and 6 hours after infection. At least four different dose levels of the antibiotics were used; each dose group consisted of five mice. […] Statist. Assoc. 42: 282-296, 1947.
From rich cuts 1-9e described in Tables III and IV, a series of seven samples were prepared for in vivo evaluation. Sample composition as well as in vivo results are summarized in Table X. Carbenicillin and gentamicin were included as controls.

Row | Molecule | s.c./i.p. ED50 administration ratio (Example A) | ED50 i.p. (Example A) [mg] | ED50 s.c. (Example A) [mg] | s.c./i.p. ED50 administration ratio (Example B) | ED50 i.p. (Example B) [mg] | ED50 s.c. (Example B) [mg]
1 | Gentamicin | 23 | 0.013 | 0.30 | 20 | 0.0063 | 0.125
2 | CC1(C)S[C@@H]2[C@H](NC(=O)C(C(=O)O)c3ccccc3)C(=O)N2[C@H]1C(=O)O (stereo partly drawn) [Carbenicillin] | 3.2 | 5.31 | 17.1 | 1.5 | 4.14 | 6.04
